As usually defined, the EC50 is the midpoint of the concentration-response curve.

This test deals with HBV. Description: HBV replication inhibition assay (BDNA assay) in HepG2.2.15 cells. The class given is cell-based. The following applies: Hepatitis B virus, HepG2.2.15, 144 h, encapsidated HBV DNA in supernatant at day 6, BDNA QuantiGene assay. As to the method:
HBV replication inhibition by the disclosed compounds were determined in cells infected or transfected with HBV or cells with stably integrated HBV, such as HepG2.2.15 cells (Sells et al. 1987). In this example, HepG2.2.15 cells were maintained in cell culture medium containing 10% fetal bovine serum (FBS), Geneticin, L-glutamine, penicillin and streptomycin. HepG2.2.15 cells were seeded in 96-well plates at a density of 40,000 cells/well and were treated with serially diluted compounds at a final DMSO concentration of 0.5% either alone or in combination by adding drugs in a checker box format. Cells were incubated with compounds for three days, after which medium was removed and fresh medium containing compounds was added to cells and incubated for another three days. At day 6, supernatant was removed and treated with DNase at 37° C. for 60 minutes, followed by enzyme inactivation at 75° C. for 15 minutes. Encapsidated HBV DNA was released from the virions and covalently linked HBV polymerase by incubating in lysis buffer (Affymetrix QS0010) containing 2.5 μg proteinase K at 50° C. for 40 minutes. HBV DNA was denatured by addition of 0.2 M NaOH and detected using a branched DNA (BDNA) QuantiGene assay kit according to manufacturer recommendation (Affymetrix). HBV DNA levels were also quantified using qPCR, based on amplification of encapsidated HBV DNA extraction with QuickExtraction Solution (Epicentre Biotechnologies) and amplification of HBV DNA using HBV specific PCR probes that can hybridize to HBV DNA and a fluorescently labeled probe for quantitation. In addition, cell viability of HepG2.2.15 cells incubated with test compounds alone or in combination was determined by using CellTitre-Glo reagent according to the manufacturer protocol (Promega). The mean background signal from wells containing only culture medium was subtracted from all other samples, and percent inhibition at each compound concentration was calculated by normalizing to signals from HepG2.2.15 cells treated with 0.5% DMSO using equation E1.
% inhibition=(DMSOave−Xi)/DMSOave×100% E1:
where DMSOave is the mean signal calculated from the wells that were treated with DMSO control (0% inhibition control) and Xi is the signal measured from the individual wells. EC50 values, effective concentrations that achieved 50% inhibitory effect, were determined by non-linear fitting using Graphpad Prism software (San Diego, Calif.) and equation E2.
Y=Ymin+(Ymax−Ymin)/(1+10(Log EC50−X)×HillSlope) E2:
where Y represents percent inhibition values and X represents the logarithm of compound concentrations.
Selected disclosed compounds were assayed in the HBV replication assay (BDNA assay), as described above, and a representative group of these active compounds is shown in Table 3.

As for `CN1CC(O)(c2ccccc2)Cn2nc3c(c2C1=O)CN(C(=O)Nc1ccc(F)c(C#N)c1)CC3` (stereo not shown) [Example 15, N-(3-Cyano-4-fluoro-phenyl)-11-hydroxy-13-methyl-14-oxo-11-phenyl-4,8,9,13-tetrazatricyclo[7.5.0.0^2,7]tetradeca-1,7-diene-4-carboxamide], the EC50 amounted to 140 nM. With `CN1CC(c2cc[nH]n2)Cn2nc3c(c2C1=O)CN(C(=O)Nc1ccc(F)c(Cl)c1)CC3` (stereo not shown) [Example 4, N-(3-Chloro-4-fluorophenyl)-10-methyl-11-oxo-8-(1H-pyrazol-3-yl)-3,4,8,9,10,11-hexahydro-1H-pyrido[4′,3′:3,4]pyrazolo[1,5-a][1,4]diazepine-2(7H)-carboxamide], the EC50 is 93 nM. Regarding `CN1CC(c2ccnn2C)Cn2nc3c(c2C1=O)CN(C(=O)Nc1ccc(F)c(C#N)c1)CC3` (stereo not shown) [Example 6, N-(3-Cyano-4-fluorophenyl)-10-methyl-8-(1-methyl-1H-pyrazol-5-yl)-11-oxo-3,4,8,9,10,11-hexahydro-1H-pyrido[4′,3′:3,4]pyrazolo[1,5-a][1,4]diazepine-2(7H)-carboxamide], the EC50 was found to be 83 nM. In the case of `CN1CC(c2ncno2)Cn2nc3c(c2C1=O)CN(C(=O)Nc1ccc(F)c(C#N)c1)CC3` (stereo not shown) [Example 2, N-(3-Cyano-4-fluorophenyl)-10-methyl-8-(1,2,4-oxadiazol-5-yl)-11-oxo-3,4,8,9,10,11-hexahydro-1H-pyrido[4′,3′:3,4]pyrazolo[1,5-a][1,4]diazepine-2(7H)-carboxamide], the EC50 was over 4000 nM. With `CN1CC(F)(c2ccccc2)Cn2nc3c(c2C1=O)CN(C(=O)Nc1ccc(F)c(C#N)c1)CC3` (stereo not shown) [Example 16, N-(3-Cyano-4-fluorophenyl)-8-fluoro-10-methyl-11-oxo-8-phenyl-3,4,8,9,10,11-hexahydro-1H-pyrido[4′,3′:3,4]pyrazolo[1,5-a][1,4]diazepine-2(7H)-carboxamide], the EC50 was determined as 176 nM. Regarding `CN1CC(c2nc[nH]n2)Cn2nc3c(c2C1=O)CN(C(=O)Nc1ccc(F)c(C#N)c1)CC3` (stereo not shown) [Example 1, N-(3-Cyano-4-fluorophenyl)-10-methyl-11-oxo-8-(1H-1,2,4-triazol-3-yl)-3,4,8,9,10,11-hexahydro-1H-pyrido[4′,3′:3,4]pyrazolo[1,5-a][1,4]diazepine-2(7H)-carboxamide], the EC50 is over 4000 nM. The figure for `CN1CC(c2nnn[nH]2)Cn2nc3c(c2C1=O)CN(C(=O)Nc1ccc(F)c(C#N)c1)CC3` (stereo not shown) [Example 3, N-(3-Cyano-4-fluorophenyl)-10-methyl-11-oxo-8-(1H-tetrazol-5-yl)-3,4,8,9,10,11-hexahydro-1H-pyrido[4′,3′:3,4]pyrazolo[1,5-a][1,4]diazepine-2(7H)-carboxamide] is over 4000 nM.

These data come from patent US20220213102A1, “DIAZEPINONE DERIVATIVES AS CAPSID ASSEMBLY MODULATORS” (Janssen Sciences Ireland Unlimited Company, priority 2019, published 2022).
